Our source for the IC50 values is US11046699B2, “Pyrazolo-pyrimidin-amino-cycloalkyl compounds and their therapeutic uses” (RAPT THERAPEUTICS, INC., priority 2018, dated 2021).

Chain of GCN2 (Q9P2K8 whole entry): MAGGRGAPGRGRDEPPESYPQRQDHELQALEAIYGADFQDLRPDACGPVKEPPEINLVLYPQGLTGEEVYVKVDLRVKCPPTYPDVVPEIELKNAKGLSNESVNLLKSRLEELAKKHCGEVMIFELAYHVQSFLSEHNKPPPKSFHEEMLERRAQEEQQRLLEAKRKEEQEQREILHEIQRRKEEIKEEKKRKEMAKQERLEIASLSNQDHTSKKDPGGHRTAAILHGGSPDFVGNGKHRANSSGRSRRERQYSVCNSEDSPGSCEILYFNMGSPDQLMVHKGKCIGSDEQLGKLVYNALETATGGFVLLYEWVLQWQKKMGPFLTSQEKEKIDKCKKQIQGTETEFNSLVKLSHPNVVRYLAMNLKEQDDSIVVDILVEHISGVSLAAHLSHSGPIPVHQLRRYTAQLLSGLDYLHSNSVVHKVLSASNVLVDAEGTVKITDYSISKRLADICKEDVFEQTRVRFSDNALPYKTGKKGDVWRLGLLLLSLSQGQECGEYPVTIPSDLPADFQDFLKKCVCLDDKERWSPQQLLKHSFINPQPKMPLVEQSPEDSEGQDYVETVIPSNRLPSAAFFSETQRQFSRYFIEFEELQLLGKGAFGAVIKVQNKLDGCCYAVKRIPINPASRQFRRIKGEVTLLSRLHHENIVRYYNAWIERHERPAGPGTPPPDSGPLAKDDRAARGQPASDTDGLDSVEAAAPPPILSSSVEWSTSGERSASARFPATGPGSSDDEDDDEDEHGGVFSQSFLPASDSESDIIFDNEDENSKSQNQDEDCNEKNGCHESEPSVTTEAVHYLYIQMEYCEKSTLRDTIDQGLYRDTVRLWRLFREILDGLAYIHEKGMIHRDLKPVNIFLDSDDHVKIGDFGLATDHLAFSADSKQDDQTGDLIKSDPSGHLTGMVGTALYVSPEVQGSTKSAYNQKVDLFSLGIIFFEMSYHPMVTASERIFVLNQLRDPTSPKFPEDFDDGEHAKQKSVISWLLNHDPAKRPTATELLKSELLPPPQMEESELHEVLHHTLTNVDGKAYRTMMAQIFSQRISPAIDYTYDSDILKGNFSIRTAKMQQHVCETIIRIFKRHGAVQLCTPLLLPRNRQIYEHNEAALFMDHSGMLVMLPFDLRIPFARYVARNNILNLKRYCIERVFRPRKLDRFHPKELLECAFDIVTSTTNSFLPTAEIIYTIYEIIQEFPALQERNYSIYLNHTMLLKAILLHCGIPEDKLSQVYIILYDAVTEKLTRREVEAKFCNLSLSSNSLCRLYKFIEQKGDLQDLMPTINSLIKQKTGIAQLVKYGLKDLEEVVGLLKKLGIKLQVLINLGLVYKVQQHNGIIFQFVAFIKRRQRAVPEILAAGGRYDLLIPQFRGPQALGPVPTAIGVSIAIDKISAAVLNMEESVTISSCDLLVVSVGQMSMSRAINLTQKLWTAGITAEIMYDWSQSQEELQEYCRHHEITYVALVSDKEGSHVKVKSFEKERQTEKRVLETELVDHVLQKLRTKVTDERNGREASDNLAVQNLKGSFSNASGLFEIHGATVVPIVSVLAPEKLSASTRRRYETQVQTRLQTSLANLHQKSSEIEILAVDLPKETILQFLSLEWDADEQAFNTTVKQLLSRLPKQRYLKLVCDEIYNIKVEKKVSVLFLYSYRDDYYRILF

The target in one test is GCN2 (Homo sapiens, UniProt Q9P2K8). Briefly: GCN2 enzymatic endpoint assay: phosphorylation of GFP-eIF2α measured by TR-FRET (Lanthascreen). Type of test: biochemical. The conditions noted are these: GCN2 biochemical IC50; 4 nM GCN2, 2 μM ATP, 80 nM GFP-eIF2α, 90 min RT; read-out: GCN2 activity. Summed up:
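Phosphorylated eIF2α read by Lanthascreen TR-FRET (acceptor 520 nm over donor 495 nm) after EDTA stop. The reaction ran 90 min at room temperature on 80 nM GFP-eIF2α with 2 μM ATP.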
For orientation: In TR-FRET formats the signal depends on donor and acceptor labels being close together.
Regarding `COCc1noc([C@@H]2CC[C@@H](Nc3ncc4c(Br)nn(-c5ccc6ncccc6c5)c4n3)C2)n1` [Example 5, 3-bromo-N-((1R,3R)-3-(3-(methoxymethyl)-1,2,4-oxadiazol-5-yl)cyclopentyl)-1-(quinolin-6-yl)-1H-pyrazolo[3,4-d]pyrimidin-6-amine], the IC50 is 500 to 1000 nM.

The test is the same for the next values; noted with them: tested as described in Example 77; compound and/or hydrochloride, dihydrochloride or trifluoroacetic acid salt; read-out: IC 50 Activity.
`CC(=O)OCC(=O)N1CCN(C(=O)[C@@H]2CC[C@@H](Nc3ncc4c(Br)nn(-c5cc(C#N)c6ncccc6c5)c4n3)C2)CC1` [2-(4-((1R,3R)-3-((3-bromo-1-(8-cyanoquinolin-6-yl)-1H-pyrazolo[3,4-d]pyrimidin-6-yl)amino)cyclopentane-1-carbonyl)piperazin-1-yl)-2-oxoethyl acetate]: the IC50 was below 25 nM.

Turning to `CNC(=O)C1(C)CC[C@@H](Nc2ncc3c(Br)nn(-c4cc(OC(F)(F)F)cc(C(C)O)c4)c3n2)C1` (stereo partly drawn) [(3R)-3-[[3-bromo-1-[3-(1-hydroxyethyl)-5-(trifluoromethoxy)phenyl]pyrazolo [3,4-d]pyrimidin-6-yl]amino]-N,1-dimethyl-cyclopentanecarboxamide], the IC50 is 25 to 200 nM. As to `CP(C)(=O)[C@@H]1CC[C@@H](Nc2ncc3c(Br)nn(-c4cc(CCN)c5nccnc5c4)c3n2)C1` [1-[8-(2-aminoethyl)quinoxalin-6-yl]-3-bromo-N-[(1R,3R)-3-dimethylphosphorylcyclopentyl] pyrazolo[3,4-d]pyrimidin-6-amine], the IC50 was 25 to 200 nM. Take `CNC(=O)[C@]1(C)CC[C@@H](Nc2ncc3c(Br)nn(-c4ccc(-c5nnc(C)s5)c(OCC#N)c4)c3n2)C1` [(1R,3R)-3-[[3-bromo-1-[3-(cyanomethoxy)-4-(5-methyl-1,3,4-thiadiazol-2-yl)phenyl]pyrazolo[3,4-d]pyrimidin-6-yl]amino]-N,1-dimethyl-cyclopentanecarboxamide]: the IC50 was 25 to 200 nM.

For the compound `CNC(=O)[C@@]1(C)CC[C@@H](Nc2ncc3c(Br)nn(-c4ccc5ncc(CCO)cc5c4)c3n2)C1` [(1S,3R)-3-[[3-bromo-1-[3-(2-hydroxy-ethyl)-6-quinolyl]pyrazolo[3,4-d]pyrimidin-6-yl]amino]-N,1-dimethyl-cyclopentanecarboxamide], the IC50 is below 25 nM. Still for that read-out and setting: the same measure for `CNC(=O)[C@H]1CC[C@@H](Nc2ncc3c(Br)nn(-c4cc(F)c5ncccc5c4)c3n2)C1` [(1S,3R)-3-[[3-bromo-1-(8-fluoro-6-quinolyl)pyrazolo[3,4-d]pyrimidin-6-yl]amino]-N-methyl-cyclopentanecarboxamide]: below 25 nM; for `CNC(=O)[C@]1(C)CC[C@@H](Nc2ncc3c(Br)nn(-c4cc(CCNS(C)(=O)=O)c5ncccc5c4)c3n2)C1` [(1R,3R)-3-[[3-bromo-1-[8-[2-(methane-sulfonamido)ethyl]-6-quinolyl]pyrazolo [3,4-d]pyrimidin-6-yl]amino]-N,1-dimethyl-cyclopentanecarboxamide]: 25 to 200 nM.

With `CN(CCNC(=O)[C@@H]1CC[C@@H](Nc2ncc3c(Br)nn(-c4cc(F)c5ncccc5c4)c3n2)C1)CC(=O)O` [N-(2-((1R,3R)-3-((3-bromo-1-(8-fluoroquinolin-6-yl)-1H-pyrazolo[3,4-d]pyrimidin-6-yl)amino)cyclopentane-1-carboxamido)ethyl)-N-methylglycine], the IC50 lay within 25 to 200 nM. On the same count and under the same terms, to `CNC(=O)[C@]1(C)CC[C@@H](Nc2ncc3c(Br)nn(-c4ccc(-c5ncco5)c(CNCC(F)F)c4)c3n2)C1` [(1R,3R)-3-[[3-bromo-1-[3-[(2,2-difluoroethylamino)methyl]-4-oxazol-2-yl-phenyl]pyrazolo[3,4-d]pyrimidin-6-yl]amino]-N,1-dimethyl-cyclopentane-carboxamide] belongs 25 to 200 nM. Same read-out and setting: the same measure for `O=C(N[C@@H]1CCNC[C@H]1F)[C@@H]1CC[C@@H](Nc2ncc3c(Br)nn(-c4cc(F)c5ncccc5c4)c3n2)C1` [(1R,3R)-3-((3-bromo-1-(8-fluoroquinolin-6-yl)-1H-pyrazolo[3,4-d]pyrimidin-6-yl)amino)-N-((3R,4R)-3-fluoropiperidin-4-yl)cyclo-pentane-1-carboxamide]: 25 to 200 nM; for `CNC(=O)[C@]1(C)CC[C@@H](Nc2ncc3c(Br)nn(-c4ccc(OCCO)c(Cl)c4)c3n2)C1` [(1R,3R)-3-[[3-bromo-1-[3-chloro-4-(2-hydroxyethoxy)phenyl]pyrazolo [3,4-d]pyrimidin-6-yl]amino]-N,1-dimethyl-cyclopentanecarboxamide]: 25 to 200 nM.

Take `CNC(=O)[C@]1(C)CC[C@@H](Nc2ncc3c(Br)nn(-c4ccc(-c5nnc(COC)s5)cc4)c3n2)C1` [(1R,3R)-3-[[3-bromo-1-[4-[5-(methoxy-methyl)-1,3,4-thiadiazol-2-yl]phenyl]pyrazolo[3,4-d]pyrimidin-6-yl]amino]-N,1-dimethyl-cyclopentanecarboxamide]: the IC50 is 25 to 200 nM. Same read-out and setting: the same measure for `CNC(=O)[C@@H]1CC[C@@H](Nc2ncc3c(Br)nn(-c4cc(C#N)c5c(c4)CCO5)c3n2)C1` [(1R,3R)-3-[[3-bromo-1-(7-cyano-2,3-dihydro-benzofuran-5-yl)pyrazolo[3,4-d]pyrimidin-6-yl]amino]-N-methyl-cyclopentanecarboxamide]: 25 to 200 nM; for `CNC(=O)[C@]1(C)CC[C@@H](Nc2ncc3c(Br)nn(-c4ccc(F)c(CCN)c4)c3n2)C1` [(1R,3R)-3-[[1-[3-(2-aminoethyl)-4-fluoro-phenyl]-3-bromo-pyrazolo[3,4-d]pyrimidin-6-yl]amino]-N,1-dimethyl-cyclopentane-carboxamide]: 25 to 200 nM; for `Cc1nnc(-c2ccc(-n3nc(Br)c4cnc(N[C@@H]5CCC[C@@H](P(C)(C)=O)C5)nc43)cc2)s1` [3-bromo-N-[(1R,3R)-3-dimethylphosphoryl-cyclohexyl]-1-[4-(5-methyl-1,3,4-thiadiazol-2-yl)phenyl]pyrazolo[3,4-d]pyrimidin-6-amine]: 25 to 200 nM.

`N#Cc1cc(-n2nc(Br)c3cnc(N[C@@H]4CC[C@@H](C(=O)NC[C@H]5COCCN5)C4)nc32)cc2cccnc12` [(1R,3R)-3-((3-bromo-1-(8-cyanoquinolin-6-yl)-1H-pyrazolo[3,4-d]pyrimidin-6-yl)amino)-N-(((S)-morpholin-3-yl)methyl)cyclopentane-1-carboxamide]: the IC50 is below 25 nM. The same measure, in the same setting: the same measure for `CNC(=O)[C@@]1(C)CC[C@@H](Nc2ncc3c(Br)nn(-c4cc(N5CCNCC5)c5ncccc5c4)c3n2)C1` [(1S,3R)-3-[[3-bromo-1-(8-piperazin-1-yl-6-quinolyl)pyrazolo[3,4-d]pyrimidin-6-yl]amino]-N,1-dimethyl-cyclopentane-carboxamide]: 25 to 200 nM; for `O=C(NCCOC(F)(F)F)[C@@H]1CC[C@@H](Nc2ncc3c(Br)nn(-c4ccc5ncccc5c4)c3n2)C1` [(1R,3R)-3-((3-bromo-1-(quinolin-6-yl)-1H-pyrazolo[3,4-d]pyrimidin-6-yl)amino)-N-(2-(trifluoromethoxy)ethyl)cyclopentane-1-carboxamide]: 200 to 500 nM; for `O=C1CN(C(=O)[C@@H]2CC[C@@H](Nc3ncc4c(Br)nn(-c5ccc(-c6ncco6)cc5)c4n3)C2)CCN1` [4-((1R,3R)-3-((3-bromo-1-(4-(oxazol-2-yl)phenyl)-1H-pyrazolo[3,4-d]pyrimidin-6-yl)amino)cyclopentane-1-carbonyl)piperazin-2-one]: 25 to 200 nM.

With `CCNC(=O)[C@@H]1CC[C@@H](Nc2ncc3c(Br)nn(-c4cc(F)c5ncccc5c4)c3n2)C1` [(1R,3R)-3-[[3-bromo-1-(8-fluoro-6-quinolyl)pyrazolo[3,4-d]pyrimidin-6-yl]amino]-N-ethyl-cyclopentanecarboxamide], the IC50 was 25 to 200 nM. Still for that read-out and setting: to `CNC(=O)[C@]1(C)CC[C@@H](Nc2ncc3c(Br)nn(-c4ccc5c(c4)OCC(=O)N5C(C)C)c3n2)C1` [(1R,3R)-3-[[3-bromo-1-(4-isopropyl-3-oxo-1,4-benzoxazin-7-yl)pyrazolo[3,4-d]pyrimidin-6-yl]amino]-N,1-dimethyl-cyclopentanecarboxamide] belongs 25 to 200 nM; to `C[C@]1(C(=O)O)CC[C@@H](Nc2ncc3c(Br)nn(-c4cc(CCN)c5ncccc5c4)c3n2)C1` [(1S,3R)-3-[[1-[8-(2-aminoethyl)-6-quinolyl]-3-bromo-pyrazolo[3,4-d]pyrimidin-6-yl]amino]-1-methyl-cyclopentanecarboxylic acid], 25 to 200 nM. Same read-out and setting: the same measure for `Cc1nnc(-c2ccc(-n3nc(Br)c4cnc(N[C@@H]5CC[C@@](C)(C(=O)NCC(F)F)C5)nc43)cc2)s1` [(1R,3R)-3-[[3-bromo-1-[4-(5-methyl-1,3,4-thiadiazol-2-yl)phenyl]pyrazolo [3,4-d]pyrimidin-6-yl]amino]-N-(2,2-difluoroethyl)-1-methyl-cyclopentane-carboxamide]: 25 to 200 nM; for `N#Cc1cc(-n2nc(Br)c3cnc(N[C@@H]4CC[C@@H](C(=O)N5CCNC(=O)C5)C4)nc32)cc2cccnc12` [6-(3-bromo-6-(((1R,3R)-3-(3-oxopiperazine-1-carbonyl)cyclopentyl)amino)-1H-pyrazolo [3,4-d]pyrimidin-1-yl)quinoline-8-carbonitrile]: below 25 nM; for `CNC(=O)[C@]1(C)CC[C@@H](Nc2ncc3c(Br)nn(-c4ccc5nccc(=O)n5c4)c3n2)C1` [(1R,3R)-3-[[3-bromo-1-(4-oxopyrido [1,2-a]pyrimidin-7-yl)pyrazolo[3,4-d]pyrimidin-6-yl]amino]-N,1-dimethyl-cyclopentanecarboxamide]: 25 to 200 nM. Same read-out and setting: to `CNC(=O)[C@]1(C)CC[C@@H](Nc2ncc3c(Br)nn(-c4ccc5c(=O)n(C)cnc5c4)c3n2)C1` belongs 25 to 200 nM; to `Cc1nnc(-c2ccc(-n3nc(Br)c4cnc(N[C@@H]5CC[C@@](C)(C(=O)N6CCOCC6)C5)nc43)cc2)s1` [[(1R,3R)-3-[[3-bromo-1-[4-(5-methyl-1,3,4-thiadiazol-2-yl)phenyl]pyrazolo[3,4-d]pyrimidin-6-yl]amino]-1-methyl-cyclopentyl]-morpholino-methanone], 25 to 200 nM.
